Molecular target: T1, Full-length USP19 (Homo sapiens, UniProt O94966)
T1 construct: Full-length USP19 was purchased from Boston Biochem (E-576); purchased Boston Biochem E-576
T1 sequence (O94966 1-1318): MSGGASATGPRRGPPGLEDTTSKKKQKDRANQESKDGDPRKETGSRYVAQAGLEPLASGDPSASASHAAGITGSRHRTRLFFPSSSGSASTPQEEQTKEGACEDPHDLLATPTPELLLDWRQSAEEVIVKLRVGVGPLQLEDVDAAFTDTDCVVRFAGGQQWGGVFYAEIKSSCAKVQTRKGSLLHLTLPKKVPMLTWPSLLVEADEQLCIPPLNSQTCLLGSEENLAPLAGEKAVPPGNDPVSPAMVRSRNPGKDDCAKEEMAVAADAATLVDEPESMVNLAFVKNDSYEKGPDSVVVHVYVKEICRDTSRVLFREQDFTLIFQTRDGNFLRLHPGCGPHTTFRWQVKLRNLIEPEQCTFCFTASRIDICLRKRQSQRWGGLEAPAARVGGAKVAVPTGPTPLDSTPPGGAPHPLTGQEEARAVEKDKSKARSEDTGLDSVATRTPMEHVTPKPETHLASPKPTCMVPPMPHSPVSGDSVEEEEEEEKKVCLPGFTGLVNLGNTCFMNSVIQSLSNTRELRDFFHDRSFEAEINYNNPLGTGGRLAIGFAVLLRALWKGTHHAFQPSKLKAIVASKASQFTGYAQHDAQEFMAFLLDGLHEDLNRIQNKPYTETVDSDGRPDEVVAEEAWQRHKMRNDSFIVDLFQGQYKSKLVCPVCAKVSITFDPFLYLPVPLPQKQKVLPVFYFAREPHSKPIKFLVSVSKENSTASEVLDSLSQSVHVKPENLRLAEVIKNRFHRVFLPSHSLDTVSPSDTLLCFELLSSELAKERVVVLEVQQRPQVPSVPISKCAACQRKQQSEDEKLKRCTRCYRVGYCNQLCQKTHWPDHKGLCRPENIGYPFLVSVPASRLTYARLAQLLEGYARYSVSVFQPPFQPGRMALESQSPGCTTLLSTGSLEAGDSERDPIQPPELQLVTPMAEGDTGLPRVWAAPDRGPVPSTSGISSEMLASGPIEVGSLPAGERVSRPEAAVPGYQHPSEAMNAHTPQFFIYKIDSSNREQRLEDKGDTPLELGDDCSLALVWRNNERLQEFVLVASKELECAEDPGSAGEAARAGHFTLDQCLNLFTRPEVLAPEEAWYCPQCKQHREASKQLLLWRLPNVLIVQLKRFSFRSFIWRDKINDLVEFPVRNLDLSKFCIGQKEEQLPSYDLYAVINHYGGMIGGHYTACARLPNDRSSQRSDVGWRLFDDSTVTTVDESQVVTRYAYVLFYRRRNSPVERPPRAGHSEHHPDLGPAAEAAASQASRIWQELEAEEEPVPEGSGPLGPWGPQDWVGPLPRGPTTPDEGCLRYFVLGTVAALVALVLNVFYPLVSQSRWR
Assay: USP19 fluorescence polarisation (FP) homogeneous assay with Ubiquitin-Lys-TAMRA substrate
Type: biochemical
Details: 2.5 nM USP19, 30 min pre-incubation, average of at least two duplicate experiments
In short: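 Full-length USP19 preincubated 30 min at RT with inhibitor (200 μM to 2 μM series, 8–18 points) before adding 500 nM Ubiquitin-Lys-TAMRA substrate.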

SMILES	IC50
C[C@H](CC(F)(F)F)C(=O)N1CCC(O)(Cn2ccc3nc(N4CCNCC4)ncc3c2=O)C2(CCCC2)C1 (stereo partly drawn) [Example 63, 6-((10-Hydroxy-7-((R)-4,4,4-trifluoro-2-methylbutanoyl)-7-azaspiro[4.5]decan-10-yl)methyl)-2-(piperazin-1-yl)pyrido[4,3-d]pyrimidin-5(6H)-one]	500 to 5000 nM
CSc1ncc2c(=O)n(CC3(O)CCN(C(=O)[C@H](C)CC(F)(F)F)CC34CCCC4)n(C)c2n1 (stereo partly drawn) [Example 64, 2-((10-Hydroxy-7-((R)-4,4,4-trifluoro-2-methylbutanoyl)-7-azaspiro[4.5]decan-10-yl)methyl)-1-methyl-6-(methylthio)-1,2-dihydro-3H-pyrazolo[3,4-d]pyrimidin-3-one]	500 to 5000 nM
C[C@H](CC1CCCCC1)C(=O)N1CCC(O)(Cn2cc(S(C)(=N)=O)c(Cl)cc2=O)C(C)(C)C1 (stereo partly drawn) [Example 67, 4-Chloro-1-((1-((R)-3-cyclohexyl-2-methylpropanoyl)-4-hydroxy-3,3-dimethylpiperidin-4-yl)methyl)-5-(S-methylsulfonimidoyl)pyridin-2(1H)-one]	500 to 5000 nM
C[C@H](CC1CCCCC1)C(=O)N1CCC(O)(Cn2cc(S(C)(=N)=O)c(-c3ccccc3)cc2=O)C(C)(C)C1 (stereo partly drawn) [Example 68, 1-((1-((R)-3-Cyclohexyl-2-methylpropanoyl)-4-hydroxy-3,3-dimethylpiperidin-4-yl)methyl)-5-(S-methylsulfonimidoyl)-4-phenylpyridin-2(1H)-one]	500 to 5000 nM
C[C@H](CC1CCCCC1)C(=O)N1CCC(O)(Cn2cc(N=S(C)(C)=O)c(Cl)cc2=O)C2(CCCC2)C1 (stereo partly drawn) [Example 69, 4-Chloro-1-((7-((R)-3-cyclohexyl-2-methylpropanoyl)-10-hydroxy-7-azaspiro[4.5]decan-10-yl)methyl)-5-((dimethyl(oxo)-λ^6-sulfaneylidene)amino)pyridin-2(1H)-one]	500 to 5000 nM
C[C@H](CC1CCCCC1)C(=O)N1CCC(O)(Cn2cc(-c3ccccc3)c(N=S(C)(C)=O)cc2=O)C2(CCCC2)C1 (stereo partly drawn) [Example 73, 1-((7-((R)-3-Cyclohexyl-2-methylpropanoyl)-10-hydroxy-7-azaspiro[4.5]decan-10-yl)methyl)-4-((dimethyl(oxo)-λ^6-sulfaneylidene)amino)-5-phenylpyridin-2(1H)-one]	500 to 5000 nM
CN(Cc1ccccc1)C(=O)N1CCC(O)(Cn2cnc(-c3ccccc3F)cc2=O)CC1 [Example 81, N-Benzyl-4-((4-(2-fluorophenyl)-6-oxopyrimidin-1(6H)-yl)methyl)-4-hydroxy-N-methylpiperidine-1-carboxamide]	50000 to 250000 nM
CN(C)C(=O)c1cn(CC2(O)CCN(C(=O)Oc3ccc([N+](=O)[O-])cc3)CC23CCCC3)c(=O)cc1-c1ccccc1 (stereo not shown) [Example 83, 4-Nitrophenyl 10-((5-(dimethylcarbamoyl)-2-oxo-4-phenylpyridin-1(2H)-yl)methyl)-10-hydroxy-7-azaspiro[4.5]decane-7-carboxylate]	50000 to 250000 nM
CC(C)COC(=O)N1CCC(O)(Cn2cc(C(=O)N(C)C)c(-c3ccccc3)cc2=O)C2(CCCC2)C1 (stereo not shown) [Example 84, Isobutyl 10-((5-(dimethylcarbamoyl)-2-oxo-4-phenylpyridin-1(2H)-yl)methyl)-10-hydroxy-7-azaspiro[4.5]decane-7-carboxylate]	5000 to 50000 nM
CN(C)C(=O)c1cn(CC2(O)CCN(C(=O)N(C)C)CC23CCCC3)c(=O)cc1-c1ccccc1 (stereo not shown) [Example 86, 10-((5-(Dimethylcarbamoyl)-2-oxo-4-phenylpyridin-1(2H)-yl)methyl)-10-hydroxy-N,N-dimethyl-7-azaspiro[4.5]decane-7-carboxamide]	5000 to 50000 nM

Other lines, results leading:

IC50	SMILES
< 500 nM	C[C@H](CC1CCCCC1)C(=O)N1CCC(O)(Cn2cc([S+](C)[O-])c(Cl)cc2=O)C2(CCCC2)C1 (stereo partly drawn) [Example 70, 4-Chloro-1-((7-((R)-3-cyclohexyl-2-methylpropanoyl)-10-hydroxy-7-azaspiro[4.5]decan-10-yl)methyl)-5-(methylsulfinyl)pyridin-2(1H)-one]
< 500 nM	C[C@H](CC1CCCCC1)C(=O)N1CCC(O)(Cn2cc(S(C)(=N)=O)c(Cl)cc2=O)C2(CCCC2)C1 (stereo partly drawn) [Example 71, 4-Chloro-1-((7-((R)-3-cyclohexyl-2-methylpropanoyl)-10-hydroxy-7-azaspiro[4.5]decan-10-yl)methyl)-5-(S-methylsulfonimidoyl)pyridin-2(1H)-one]
< 500 nM	C[C@H](CC1CCCCC1)C(=O)N1CCC(O)(Cn2cc(N=S(C)(C)=O)c(-c3ccccc3)cc2=O)C2(CCCC2)C1 (stereo partly drawn) [Example 72, 1-((7-((R)-3-Cyclohexyl-2-methylpropanoyl)-10-hydroxy-7-azaspiro[4.5]decan-10-yl)methyl)-5-((dimethyl(oxo)-λ^6-sulfaneylidene)amino)-4-phenylpyridin-2(1H)-one]
< 500 nM	C[C@H](CC1CCCCC1)C(=O)N1CCC(O)(Cn2cc(S(C)(=N)=O)c(-c3ccccc3)cc2=O)C2(CCCC2)C1 (stereo partly drawn) [Example 74, 1-((7-((R)-3-Cyclohexyl-2-methylpropanoyl)-10-hydroxy-7-azaspiro[4.5]decan-10-yl)methyl)-5-(S-methylsulfonimidoyl)-4-phenylpyridin-2(1H)-one]
< 500 nM	C[C@H](CC(F)(F)F)C(=O)N1CCC(O)(Cn2cc(N=S(C)(C)=O)c(-c3ccccc3)cc2=O)C2(CCCC2)C1 (stereo partly drawn) [Example 75, 5-((Dimethyl(oxo)-λ^6-sulfaneylidene)amino)-1-((10-hydroxy-7-((R)-4,4,4-trifluoro-2-methylbutanoyl)-7-azaspiro[4.5]decan-10-yl)methyl)-4-phenylpyridin-2(1H)-one]
< 500 nM	CSc1cn(CC2(O)CCN(C(=O)[C@H](C)CC3CCCCC3)CC23CCCC3)c(=O)cc1Cl (stereo partly drawn) [Example 76, 4-Chloro-1-((7-((R)-3-cyclohexyl-2-methylpropanoyl)-10-hydroxy-7-azaspiro[4.5]decan-10-yl)methyl)-5-(methylthio)pyridin-2(1H)-one]
< 500 nM	C[C@H](CC1CCCCC1)C(=O)N1CCC(O)(Cn2cc(S(C)(=O)=O)c(Cl)cc2=O)C2(CCCC2)C1 (stereo partly drawn) [Example 77, 4-Chloro-1-((7-((R)-3-cyclohexyl-2-methylpropanoyl)-10-hydroxy-7-azaspiro[4.5]decan-10-yl)methyl)-5-(methylsulfonyl)pyridin-2(1H)-one]
< 500 nM	CSc1cn(CC2(O)CCN(C(=O)[C@H](C)CC3CCCCC3)CC23CCCC3)c(=O)cc1-c1ccccc1 (stereo partly drawn) [Example 78, 1-((7-((R)-3-Cyclohexyl-2-methylpropanoyl)-10-hydroxy-7-azaspiro[4.5]decan-10-yl)methyl)-5-(methylthio)-4-phenylpyridin-2(1H)-one]
< 500 nM	C[C@H](CC1CCCCC1)C(=O)N1CCC(O)(Cn2cc([S+](C)[O-])c(-c3ccccc3)cc2=O)C2(CCCC2)C1 (stereo partly drawn) [Example 79, 1-((7-((R)-3-Cyclohexyl-2-methylpropanoyl)-10-hydroxy-7-azaspiro[4.5]decan-10-yl)methyl)-5-(methylsulfinyl)-4-phenylpyridin-2(1H)-one]
< 500 nM	C[C@H](CC1CCCCC1)C(=O)N1CCC(O)(Cn2cc(S(C)(=O)=O)c(-c3ccccc3)cc2=O)C2(CCCC2)C1 (stereo partly drawn) [Example 80, 1-((7-((R)-3-Cyclohexyl-2-methylpropanoyl)-10-hydroxy-7-azaspiro[4.5]decan-10-yl)methyl)-5-(methylsulfonyl)-4-phenylpyridin-2(1H)-one]
< 500 nM	CN(C)C(=O)c1cn(CC2(O)CCN(C(=O)N(C)CC3CCCCC3)CC23CCCC3)c(=O)cc1-c1ccccc1 (stereo not shown) [Example 82, N-(Cyclohexylmethyl)-10-((5-(dimethylcarbamoyl)-2-oxo-4-phenylpyridin-1(2H)-yl)methyl)-10-hydroxy-N-methyl-7-azaspiro[4.5]decane-7-carboxamide]
< 500 nM	CN(C)C(=O)c1cn(CC2(O)CCN(C(=O)NCc3ccccc3)CC23CCCC3)c(=O)cc1-c1ccccc1 (stereo not shown) [Example 85, N-Benzyl-10-((5-(dimethylcarbamoyl)-2-oxo-4-phenylpyridin-1(2H)-yl)methyl)-10-hydroxy-7-azaspiro[4.5]decane-7-carboxamide]
